The text below walks through data of patent US10829458B2 (Araxes Pharma LLC, priority 2015, dated 2020).

Each structure is given as a SMILES string.

This assay deals with T1, KRAS G12C 1-169, his-tagged protein, GDP-loaded (Homo sapiens, UniProt P01116, G12C).
T1 construct: KRAS G12C 1-169, his-tagged protein, GDP-loaded
Put plainly: Biochemical assay: covalent modification of KRAS G12C measured by mass spectrometry (RapidFire/TOF or Q-Exactive). The settings on record: covalent binding to KRAS G12C; compounds of structure (I). Here is the method:
Test compounds were prepared as 10 mM stock solutions in DMSO (Fisher cat #BP-231-100). KRAS G12C 1-169, his-tagged protein, GDP-loaded was diluted to 2 μm in buffer (20 mM Hepes, 150 mM NaCl, 1 mM MgCl2). Compounds were tested for activity as follows:
Compounds were diluted to 50× final test concentration in DMSO in 96-well storage plates. Compound stock solutions were vortexed before use and observed carefully for any sign of precipitation. Dilutions were as follow: • For 100 μM final compound concentration, compounds were diluted to 5000 μM (5 μl 10 mM compound stock+5 μl DMSO and mixed well by pipetting. • For 30 μM final compound concentration, compounds were diluted to 1500 μM (3 μl 10 mM compound stock+17p DMSO) and mixed well by pipetting. • For 10 μM final compound concentration, compounds were diluted to 500 μM (2 μl 10 mM compound stock+38p DMSO) and mixed well by pipetting. 49p of the stock protein solution was added to each well of a 96-well PCR plate (Fisher cat #1423027). 1 μl of the diluted 50× compounds were added to appropriate wells in the PCR plate using 12-channel pipettor. Reactions were mixed carefully and thoroughly by pipetting up/down with a 200·1 multi-channel pipettor. The plate was sealed well with aluminum plate seal, and stored in drawer at room temperature for 30 min, 2 hour or 24 hrs. 5·1 of 2% formic acid (Fisher cat #A117) in DI H2O was then added to each well followed by mixing with a pipette. The plate was then resealed with aluminum seal and stored on dry ice until analyzed as described below.
The above described assays were analyzed by mass spectrometry according to one of the following two procedures:
The MS instrument is set to positive polarity, 2 GHz resolution, and low mass (1700) mode and allowed to equilibrate for 30 minutes. The instrument is then calibrated, switched to acquisition mode and the appropriate method loaded.
After another 30 minute equilibration time, a blank batch (i.e., buffer) is run to ensure equipment is operating properly. The samples are thawed at 37° C. for 10 minutes, briefly centrifuged, and transfer to the bench top. Wells A1 and H12 are spiked with 1 uL 500 uM internal standard peptide, and the plates centrifuged at 2000×g for 5 minutes. The method is then run and masses of each individual well recorded.
The masses (for which integration data is desired) for each well are pasted into the platemap and exported from the analysis. Masses for the internal standards are exported as well. The data at 50 ppm is extracted for the +19 charge state, and identity of well A1 is assigned using the internal standard spike and integrated. Peak data is exported as a TOF list and the above steps are repeated individually, for the +20, 21, 22, 23, 24, and 25 charge states.
The masses and peak intensities of KRAS G12C protein species were measured using a Dionex RSLCnano system (Thermo Scientific) connected to a Q Exactive Plus mass spectrometer (Thermo Scientific).
[…] of sample was each loaded onto a Aeris™ 3.6 μm WIDEPORE C4 200 Å, LC Column 50×2.1 mm column maintained at 40° C. at a flow rate of 600 μl min^−1 with […] (0.1% formic acid in acetonitrile). The liquid chromatography conditions were 20% solvent B for 1 min, 20% to 60% solvent B for 1.5 min, 60% to 90% solvent for 0.5 min, 90% solvent B for 0.2 min, 90% to 20% solvent B for 0.2 min, and then equilibrated for 1.6 min before the following sample injection. The flow rate was maintained at 600 μl min^−1 throughout the sample analysis.
The mass spectrometer was operated in profile mode at a resolution of 17500, 5 microscans, using 50 msec max injection time and an AGC target of 1e6, and a full mass range from 800-1850 m/z was recorded. The HCD trapping gas was optimized for maximum sensitivity for intact proteins. […]
For the compound `C=CC(=O)N1CCN(c2nc(OCCN3CCOCC3)nc3c(F)c(-c4c(O)cccc4F)c(Cl)cc23)CC1` (atropisomer, axis not shown) [Example I-28, (R)-1-(4-(6-chloro-8-fluoro-7-(2-fluoro-6-hydroxyphenyl)-2-(2-morpholino-ethoxy)quinazolin-4-yl)piperazin-1-yl)prop-2-en-1-one], the Binding % entry is on record as “+ (+ indicates binding activity up to 50%)”.
The entry for `C=CC(=O)N1CCN(c2nc(OCCN3CCOCC3)nc3c(F)c(-c4c(O)cccc4F)c(Cl)cc23)CC1` (atropisomer, axis not shown) [Example I-29, (S)-1-(4-(6-chloro-8-fluoro-7-(2-fluoro-6-hydroxyphenyl)-2-(2-morpholino-ethoxy)quinazolin-4-yl)piperazin-1-yl)prop-2-en-1-one] is “+++ (+++ indicates binding activity greater than 90%)”; for `C=CC(=O)N1CCN(c2nc(OCCN3CCOCC3)nc3c(F)c(-c4c(C)ccc5[nH]ncc45)c(Cl)cc23)CC1` (atropisomer, axis not shown) [Example I-31, (R)-1-(4-(6-chloro-8-fluoro-7-(5-methyl-1H-indazol-4-yl)-2-(2-morpholino-ethoxy)quinazolin-4-yl)piperazin-1-yl)prop-2-en-1-one] it is “+++ (+++ indicates binding activity greater than 90%)”.
As to `C=CC(=O)N1CCN(c2nc(OCCN3CCOCC3)nc3c(F)c(-c4c(C)ccc5[nH]ncc45)c(Cl)cc23)CC1` (atropisomer, axis not shown) [Example I-32, (S)-1-(4-(6-chloro-8-fluoro-7-(5-methyl-1H-indazol-4-yl)-2-(2-morpholino-ethoxy)quinazolin-4-yl)piperazin-1-yl)prop-2-en-1-one], the Binding % result is “+ (+ indicates binding activity up to 50%)”.
With `C=CC(=O)N1CCN(c2nc(OCCN3CCOCC3)nc3c(F)c(-c4cc(O)cc5ccccc45)c(Cl)cc23)CC1` (atropisomer, axis not shown) [Example I-51, (S)-1-(4-(6-chloro-8-fluoro-7-(3-hydroxy-naphthalen-1-yl)-2-(2-morpholino-ethoxy)quinazolin-4-yl)piperazin-1-yl)prop-2-en-1-one], the Binding % result was “+++ (+++ indicates binding activity greater than 90%)”.
In the case of `C=CC(=O)N1CCN(c2nc(OCCN3CCOCC3)nc3c(F)c(-c4cc(O)cc5ccccc45)c(Cl)cc23)CC1` (atropisomer, axis not shown) [Example I-52, (R)-1-(4-(6-chloro-8-fluoro-7-(3-hydroxy-naphthalen-1-yl)-2-(2-morpholino-ethoxy)quinazolin-4-yl)piperazin-1-yl)prop-2-en-1-one] it was “+ (+ indicates binding activity up to 50%)”.
In the case of `C=CC(=O)N1CCN(c2nc(NC3CCN(C4CC4)CC3)nc3c(F)c(-c4c(O)cccc4F)c(Cl)cc23)CC1` (atropisomer, axis not shown) [Example I-78, (S)-1-(4-(6-chloro-2-(1-cyclopropyl-piperidin-4-ylamino)-8-fluoro-7-(2-fluoro-6-hydroxyphenyl)quinazolin-4-yl)piperazin-1-yl)prop-2-en-1-one] it was “+++ (+++ indicates binding activity greater than 90%)”.
Regarding `C=CC(=O)N1CCN(c2nc(NC3CCN(C4CC4)CC3)nc3c(F)c(-c4c(O)cccc4F)c(Cl)cc23)CC1` (atropisomer, axis not shown) [Example I-79, (R)-1-(4-(6-chloro-2-(1-cyclopropyl-piperidin-4-ylamino)-8-fluoro-7-(2-fluoro-6-hydroxyphenyl)quinazolin-4-yl)piperazin-1-yl) prop-2-en-1-one], the Binding % result is given as “+ (+ indicates binding activity up to 50%)”.
For `C=CC(=O)N1CCN(c2nc(NC3CCN(C4CC4)CC3)nc3c(F)c(-c4c(C)ccc5[nH]ncc45)c(Cl)cc23)CC1` (atropisomer, axis not shown) [Example I-81, (S)-1-(4-(6-chloro-2-(1-cyclopropyl-piperidin-4-ylamino)-8-fluoro-7-(5-methyl-1H-indazol-4-yl)quinazolin-4-yl)piperazin-1-yl)prop-2-en-1-one], the Binding % entry is recorded as “+ (+ indicates binding activity up to 50%)”.
On to `C=CC(=O)N1CCN(c2nc(NC3CCN(C4CC4)CC3)nc3c(F)c(-c4c(C)ccc5[nH]ncc45)c(Cl)cc23)CC1` (atropisomer, axis not shown) [Example I-82, (R)-1-(4-(6-chloro-2-(1-cyclopropyl-piperidin-4-ylamino)-8-fluoro-7-(5-methyl-1H-indazol-4-yl)quinazolin-4-yl)piperazin-1-yl)prop-2-en-1-one], for which the Binding % entry is “+++ (+++ indicates binding activity greater than 90%)”.
In the case of `C=CC(=O)N1CCN(c2nc(OCCN(CC)CC)nc3c(F)c(-c4c(O)cccc4F)c(Cl)cc23)CC1` (atropisomer, axis not shown) [Example I-87, (S)-1-(4-(6-chloro-2-(2-(diethylamino)ethoxy)-8-fluoro-7-(2-fluoro-6-hydroxyphenyl)quinazolin-4-yl)piperazin-1-yl) prop-2-en-1-one] it was “+++ (+++ indicates binding activity greater than 90%)”.
The entry for `C=CC(=O)N1CCN(c2nc(OCCN(CC)CC)nc3c(F)c(-c4c(O)cccc4F)c(Cl)cc23)CC1` (atropisomer, axis not shown) [Example I-88, (R)-1-(4-(6-chloro-2-(2-(diethylamino)ethoxy)-8-fluoro-7-(2-fluoro-6-hydroxyphenyl)quinazolin-4-yl)piperazin-1-yl) prop-2-en-1-one] is “+ (+ indicates binding activity up to 50%)”; for `C=CC(=O)N1CCN(c2nc(OCCN(C)C)nc3c(F)c(-c4cc(O)cc5ccccc45)c(Cl)cc23)CC1` (atropisomer, axis not shown) [Example I-95, (S)-1-(4-(6-chloro-2-(2-(dimethylamino)ethoxy)-8-fluoro-7-(3-hydroxy-naphthalen-1-yl)quinazolin-4-yl)piperazin-1-yl)prop-2-en-1-one] it is “+++ (+++ indicates binding activity greater than 90%)”; for `C=CC(=O)N1CCN(c2nc(OCCN(C)C)nc3c(F)c(-c4cc(O)cc5ccccc45)c(Cl)cc23)CC1` (atropisomer, axis not shown) [Example I-96, (R)-1-(4-(6-chloro-2-(2-(dimethylamino)ethoxy)-8-fluoro-7-(3-hydroxy-naphthalen-1-yl)quinazolin-4-yl)piperazin-1-yl)prop-2-en-1-one] it is “+ (+ indicates binding activity up to 50%)”.
`C=CC(=O)N1CCN(c2nc(OCCN3CCC(F)(F)C3)nc3c(F)c(-c4c(O)cccc4F)c(Cl)cc23)CC1` (atropisomer, axis not shown) [Example I-97, (S)-1-(4-(6-chloro-2-(2-(3,3-difluoro-pyrrolidin-1-yl)ethoxy)-8-fluoro-7-(2-fluoro-6-hydroxyphenyl)quinazolin-4-yl)piperazin-1-yl)prop-2-en-1-one]: the Binding % entry is “+++ (+++ indicates binding activity greater than 90%)”.
As to `C=CC(=O)N1CCN(c2nc(OCCN3CCC(F)(F)C3)nc3c(F)c(-c4c(O)cccc4F)c(Cl)cc23)CC1` (atropisomer, axis not shown) [Example I-98, (R)-1-(4-(6-chloro-2-(2-(3,3-difluoro-pyrrolidin-1-yl)ethoxy)-8-fluoro-7-(2-fluoro-6-hydroxyphenyl)quinazolin-4-yl)piperazin-1-yl) prop-2-en-1-one], the Binding % result is reported as “+ (+ indicates binding activity up to 50%)”.
